Consider four compounds from publication PMC7503933, “Benzyl Furanones and Pyrones from the Marine-Derived Fungus Aspergillus terreus Induced by Chemical Epigenetic Modification” (Molecules, 2020).

This experiment deals with T1, PTP1B (Homo sapiens, UniProt P18031).
T1 construct: gene PTPN1; human recombinant (Abcam ab51277)
T1 sequence (P18031 1-435): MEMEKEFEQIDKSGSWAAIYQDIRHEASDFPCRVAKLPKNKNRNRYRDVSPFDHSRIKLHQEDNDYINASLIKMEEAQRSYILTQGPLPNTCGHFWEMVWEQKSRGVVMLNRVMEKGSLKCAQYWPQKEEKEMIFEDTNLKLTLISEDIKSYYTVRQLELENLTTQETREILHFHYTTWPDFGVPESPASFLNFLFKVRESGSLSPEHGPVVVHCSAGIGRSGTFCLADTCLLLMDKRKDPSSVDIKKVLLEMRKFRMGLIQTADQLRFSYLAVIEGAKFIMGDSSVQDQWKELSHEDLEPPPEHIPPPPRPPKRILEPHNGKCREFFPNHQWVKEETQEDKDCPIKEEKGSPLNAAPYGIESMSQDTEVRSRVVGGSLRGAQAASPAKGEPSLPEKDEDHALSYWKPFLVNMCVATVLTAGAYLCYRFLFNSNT
Nature of the experiment: recombinant PTP1B pNPP hydrolysis assay, absorbance […] nm. It is filed as biochemical.
On to `COc1cc(O)cc(C)c1C[C@@]1(C(N)=O)OC(C)=CC1=O`, for which the half-maximal inhibitory concentration (IC50) stood at 17.3 µM.
On to `COc1cc(O)cc(C)c1C[C@]1(C(N)=O)OC(C)=CC1=O` [(−)-1, (−)-asperfuranone], for which the 50% inhibitory concentration (IC50) came to 35.5 µM.
`COc1cc(O)cc(C)c1Cc1c(O)cc(C)oc1=O` [compound 2, asperpyranone A]: the IC50 turned out to be 42.3 µM.
The result for `COc1cc(O)cc(C)c1CC1(C(N)=O)OC(C)=CC1=O` (racemic) [(±)-1, Asperfuranone (1)] reads 45.8 µM.

As a reminder, the IC50 is the point on the concentration scale where inhibition reaches its midpoint.
